Measured values taken from ChEMBL document CHEMBL1127528, “Synthesis and carbonic anhydrase inhibitory activity of 4-substituted 2-thiophenesulfonamides” (J Med Chem, 1994).

Columns and labels:
Carbonic anhydrase 2 = Carbonic anhydrase 2 (Homo sapiens, UniProt P00918)
Description: Activity against human carbonic anhydrase II

[1] = Ocular sensitization assay as susceptibility to nucleophilic attack by cysteine; assay type: functional

SMILES | IC50 (Carbonic anhydrase 2) [nM] | Cysteine reaction [1] [min⁻¹]
CCCCCC/C(=N\O)c1csc(S(N)(=O)=O)c1 | 5.8 | 5e-05
CCCCC(N)c1csc(S(N)(=O)=O)c1 (stereo unspecified) | 626 | 
CCCCC(=O)c1csc(S(N)(=O)=O)c1 | 6.3 | 
CCCCCCC(=O)c1csc(S(N)(=O)=O)c1 | 5 | 5e-05
CCCCNC(C)c1csc(S(N)(=O)=O)c1 (stereo unspecified) | 590 | 
CCCCCC/C(=N\N)c1csc(S(N)(=O)=O)c1 | 2 | 5e-05
CCCCCCC(O)c1csc(S(N)(=O)=O)c1 (stereo unspecified) | 13 | < 5e-05
CC(=O)c1csc(S(N)(=O)=O)c1 | 16 | 
CCCCCCC(N)c1csc(S(N)(=O)=O)c1 (stereo unspecified) | 160 | 
CCCCC(O[Si](C)(C)C(C)(C)C)c1csc(S(N)(=O)=O)c1 (stereo unspecified) | 200 | 
CCCCCC/C(=N\OC)c1csc(S(N)(=O)=O)c1 | 4.7 | 5e-05
CC(C)CN[C@H]1CCS(=O)(=O)c2sc(S(N)(=O)=O)cc21 |  | < 5e-05
CCCC/C(=N\O)c1csc(S(N)(=O)=O)c1 | 15 | 
NS(=O)(=O)c1cc(C(=O)c2ccccc2)cs1 | 6.8 | 5e-05
CC(=O)Nc1nnc(S(N)(=O)=O)s1 |  | 3.5e-05
